The results in this text go back to patent US20030235634A1, “Extraction of non-polar isothiocyanates from plants and dietary supplements containing same” (ACCESS BUSINESS GROUP INTERNATIONAL LLC., priority 2002, published 2003).

Molecules are shown by their SMILES. Where two headings read alike, the source gives them in different places.

The nature of one series: Solubility in water. How it is done: Garden cress powder, prepared by drying at 45° C. and containing about […] BITC, and watercress powder, prepared by drying at 50° C. and containing about […] PEITC, were mixed in equal parts. From the mixture, 500 mg were added to a 50 mL conical vial to which 10 mL of water was added and the mixture homogenized for 2 minutes. The mixture was extracted twice with 10 mL safflower oil using homogenization at level 6 (Omni 5000 Mixer) for one minute and centrifuged for 3 minutes at 8,000×g. The oil fractions were collected, pooled and the volume brought up to 25 mL.

A short description of series [1]: Dissolution of purchased BITC and PEITC in safflower oil (how much can be stored in the oil). The format is physicochemical. The following applies: composition in safflower oil (78.91 % volume oil). An excerpt:
BITC and PEITC were purchased from Aldrich (Sigma-Aldrich, Milwaukee, Wis.) and dissolved in safflower oil to determine how much of the non-polar isothiocyanates could be stored in the oil.

Consider `S=C=NCc1ccccc1` [BITC, Benzyl isothiocyanate], for which the solubility in water result in “Solubility in water” (water, no test described) was “not soluble in water”. In series [1], the “% Volume” value is recorded as 11.50 % Volume and the “ppm (mg/L)” value is listed as 129,430 ppm (mg/L).
Regarding `S=C=NCCc1ccccc1` [PEITC, phenethyl isothiocyanate], the solubility in water result in the series “Solubility in water” is reported as “not soluble in water”. Moreover, in series [1], the “% Volume” value was 9.59 % Volume and the “ppm (mg/L)” value is 104,540 ppm (mg/L).
